Data on six compounds can be found in ChEMBL document CHEMBL1201862, “PubChem BioAssay data set” (2004).

In one experiment the target is T1, CAAX prenyl protease 2 (Homo sapiens, UniProt Q9Y256).
T1 sequence (Q9Y256 whole entry): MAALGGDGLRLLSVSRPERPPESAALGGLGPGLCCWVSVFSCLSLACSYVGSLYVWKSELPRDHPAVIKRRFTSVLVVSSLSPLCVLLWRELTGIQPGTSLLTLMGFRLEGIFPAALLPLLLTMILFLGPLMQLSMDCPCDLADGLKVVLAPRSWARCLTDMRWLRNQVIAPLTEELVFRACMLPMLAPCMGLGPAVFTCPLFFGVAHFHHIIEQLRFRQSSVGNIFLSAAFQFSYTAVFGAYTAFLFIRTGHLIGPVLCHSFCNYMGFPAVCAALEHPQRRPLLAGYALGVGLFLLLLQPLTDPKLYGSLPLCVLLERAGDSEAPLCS
Briefly: human Rce1 protease inhibitors, dose response, biochemical, yeast membranes, quenched-peptide fluorescence, cherry-pick (AID 588849).

In a further experiment the target is Trypsin (Sus scrofa, UniProt P00761). Briefly: porcine trypsin inhibitors, dose response, selectivity assay for Rce1 protease inhibitor project, biochemical, quenched peptide fluorescence, cherry-pick (AID 488789).
A further experiment relates to BJ. Briefly: cytotoxicity toward Ras-transformed BJeLR fibroblasts, dose response, cell-based, alamar blue fluorescence, cherrypicked samples (AID 2631).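 Further: confirmatory dose-response assay in RAS-dependent BJ fibroblasts engineered with TERT, LT and ST, with cytotoxicity read by fluorescence.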 The class given is functional. The conditions noted are these: Homo sapiens.
The subject of another experiment is INS1. As to the kind of experiment: beta cell apoptosis inhibitors, cytokine rescue, dose response, luminescence, retest (AID 449756).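 Further: cell death triggered by IL-1 beta plus TNF-alpha plus IFN-gamma mixture; protective hits raise ATP signal compared with cytokine alone wells.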 It is filed as functional, cell-based. The conditions noted are these: Rattus norvegicus.
For experiment [1], the target named is Delta-type opioid receptor (Homo sapiens, UniProt P41143). As to the kind of experiment: Counterscreen for agonists of heterodimerization of the mu 1 (OPRM1) and delta 1 (OPRD1) opioid receptors: Luminescence-based cell-based high throughput dose response assay to identify agonists of OPRD1 homodimerization. [Related pubchem assays (depositor defined):AID504326, AID504355, AID504692, AID504904, AID504905]. The class given is functional.

Another experiment concerns the target Mu-type opioid receptor (Homo sapiens, UniProt P35372). Briefly: Counterscreen for agonists of heterodimerization of the mu 1 (OPRM1) and delta 1 (OPRD1) opioid receptors: Luminescence-based cell-based high throughput dose response assay to identify agonists of OPRM1 homodimerization. It is filed as functional.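 Further: U2OS cells expressing OPRM1 and beta-arrestin as split beta-galactosidase partners.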
The target in experiment [2] is 5-hydroxytryptamine receptor 5A (Homo sapiens, UniProt P47898). As to the kind of experiment: Counterscreen for agonists of OPRM1-OPRD1 heterodimerization: luminescence-based cell-based high throughput dose response assay to identify agonists of 5-hydroxytryptamine (serotonin) 5A receptor (HTR5A). [Related pubchem assays (depositor defined):AID504326, AID504355, AID504692, AID504904, AID504905]. The class given is functional.

Experiment [3] has as its target T2, Short transient receptor potential channel 4 (Mus musculus, UniProt Q9QUQ5).
T2 sequence (Q9QUQ5 whole entry): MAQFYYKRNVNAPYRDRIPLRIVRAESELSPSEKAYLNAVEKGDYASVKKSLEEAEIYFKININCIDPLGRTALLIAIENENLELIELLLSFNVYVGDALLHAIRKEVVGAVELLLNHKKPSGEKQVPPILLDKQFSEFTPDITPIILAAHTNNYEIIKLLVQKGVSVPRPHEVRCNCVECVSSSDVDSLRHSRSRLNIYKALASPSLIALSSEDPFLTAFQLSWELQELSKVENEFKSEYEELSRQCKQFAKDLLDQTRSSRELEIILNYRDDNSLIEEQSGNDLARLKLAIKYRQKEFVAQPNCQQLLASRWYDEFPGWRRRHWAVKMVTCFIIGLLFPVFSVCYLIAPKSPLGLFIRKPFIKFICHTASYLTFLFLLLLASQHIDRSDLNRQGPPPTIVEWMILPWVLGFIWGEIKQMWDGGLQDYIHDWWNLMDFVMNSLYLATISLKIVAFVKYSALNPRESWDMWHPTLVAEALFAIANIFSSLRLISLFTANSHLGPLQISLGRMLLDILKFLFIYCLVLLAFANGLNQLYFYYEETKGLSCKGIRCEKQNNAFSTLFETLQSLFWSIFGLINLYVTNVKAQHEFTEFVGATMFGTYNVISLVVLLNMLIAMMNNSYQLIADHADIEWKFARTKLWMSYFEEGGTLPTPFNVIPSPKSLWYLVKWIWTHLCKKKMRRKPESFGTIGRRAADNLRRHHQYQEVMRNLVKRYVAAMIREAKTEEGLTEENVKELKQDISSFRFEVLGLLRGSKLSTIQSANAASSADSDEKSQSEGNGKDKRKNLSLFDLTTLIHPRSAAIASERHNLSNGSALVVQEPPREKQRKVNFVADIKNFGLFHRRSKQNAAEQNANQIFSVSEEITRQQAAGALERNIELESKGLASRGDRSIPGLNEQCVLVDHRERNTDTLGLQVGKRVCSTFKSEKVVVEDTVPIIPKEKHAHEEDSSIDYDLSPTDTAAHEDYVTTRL
As to the kind of experiment: mouse TRPC4 channel activators, dose response, cell-based, HEK293 TRPC4/mu-opioid, Fluo-4 calcium (AID 434937). It is filed as functional.

For experiment [4], the target named is T3, Sentrin-specific protease 7 (Homo sapiens, UniProt Q9BQF6).
T3 sequence (Q9BQF6 whole entry): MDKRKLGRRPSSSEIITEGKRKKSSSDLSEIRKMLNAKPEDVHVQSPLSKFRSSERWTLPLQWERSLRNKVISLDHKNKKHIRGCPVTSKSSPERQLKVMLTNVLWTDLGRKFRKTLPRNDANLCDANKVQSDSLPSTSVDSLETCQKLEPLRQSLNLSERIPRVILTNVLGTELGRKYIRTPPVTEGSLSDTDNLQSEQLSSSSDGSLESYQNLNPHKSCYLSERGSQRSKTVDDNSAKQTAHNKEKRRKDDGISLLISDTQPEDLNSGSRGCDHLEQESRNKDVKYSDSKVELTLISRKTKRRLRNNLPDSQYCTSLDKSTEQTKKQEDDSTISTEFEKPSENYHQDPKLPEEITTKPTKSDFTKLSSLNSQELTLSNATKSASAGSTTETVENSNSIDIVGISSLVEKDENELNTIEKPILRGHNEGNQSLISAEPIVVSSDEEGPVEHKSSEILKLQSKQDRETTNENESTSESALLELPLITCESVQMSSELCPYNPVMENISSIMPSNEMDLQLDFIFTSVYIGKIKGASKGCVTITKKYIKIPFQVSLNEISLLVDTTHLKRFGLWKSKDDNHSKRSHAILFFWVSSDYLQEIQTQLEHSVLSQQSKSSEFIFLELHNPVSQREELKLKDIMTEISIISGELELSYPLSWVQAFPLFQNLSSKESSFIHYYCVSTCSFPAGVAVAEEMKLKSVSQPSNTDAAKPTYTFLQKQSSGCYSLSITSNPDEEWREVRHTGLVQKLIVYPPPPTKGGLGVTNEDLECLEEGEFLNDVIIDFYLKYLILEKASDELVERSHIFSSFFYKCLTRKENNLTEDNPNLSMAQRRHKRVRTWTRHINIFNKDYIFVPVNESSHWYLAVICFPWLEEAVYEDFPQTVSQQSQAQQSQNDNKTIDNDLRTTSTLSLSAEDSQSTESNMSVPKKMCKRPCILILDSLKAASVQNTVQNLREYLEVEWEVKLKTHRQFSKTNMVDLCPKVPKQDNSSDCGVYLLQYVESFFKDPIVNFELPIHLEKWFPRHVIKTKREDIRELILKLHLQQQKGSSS
As to the kind of experiment: SENP7 protease inhibitors, SAR follow-up, biochemical, luminescence (AID 504497). The class given is functional.

The target in the next experiment is T4, Caspase-3 (Homo sapiens, UniProt P42574).
T4 sequence (P42574 whole entry): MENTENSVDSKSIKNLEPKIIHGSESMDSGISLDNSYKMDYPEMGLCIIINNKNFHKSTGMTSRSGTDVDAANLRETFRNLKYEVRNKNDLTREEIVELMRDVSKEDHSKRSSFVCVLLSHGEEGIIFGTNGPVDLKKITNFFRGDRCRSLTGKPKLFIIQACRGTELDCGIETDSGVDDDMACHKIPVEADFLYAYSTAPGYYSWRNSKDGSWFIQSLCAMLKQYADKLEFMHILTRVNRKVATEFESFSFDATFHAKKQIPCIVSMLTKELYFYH
Briefly: SAR Analysis of small molecule inhibitors of Sentrin-specific proteases (SENPs) using a Caspase-3 Selectivity assay. [Related pubchem assays (depositor defined):AID2540, AID2599, AID434973, AID489001]. The class given is functional.

Experiment [5] concerns the target T5, Sentrin-specific protease 8 (Homo sapiens, UniProt Q96LD8).
T5 sequence (Q96LD8 whole entry): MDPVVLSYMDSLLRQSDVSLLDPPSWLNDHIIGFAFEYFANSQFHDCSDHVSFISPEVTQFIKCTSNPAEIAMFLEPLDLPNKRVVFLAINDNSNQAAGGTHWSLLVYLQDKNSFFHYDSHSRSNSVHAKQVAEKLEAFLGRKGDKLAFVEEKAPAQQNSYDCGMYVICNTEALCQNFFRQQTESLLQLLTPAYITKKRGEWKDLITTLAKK
Briefly: SENP8 protease inhibitors, SAR follow-up, biochemical, luminescence (AID 504501). It is filed as functional.

In experiment [6] the target is T6, Sentrin-specific protease 6 (Homo sapiens, UniProt Q9GZR1).
T6 sequence (Q9GZR1 whole entry): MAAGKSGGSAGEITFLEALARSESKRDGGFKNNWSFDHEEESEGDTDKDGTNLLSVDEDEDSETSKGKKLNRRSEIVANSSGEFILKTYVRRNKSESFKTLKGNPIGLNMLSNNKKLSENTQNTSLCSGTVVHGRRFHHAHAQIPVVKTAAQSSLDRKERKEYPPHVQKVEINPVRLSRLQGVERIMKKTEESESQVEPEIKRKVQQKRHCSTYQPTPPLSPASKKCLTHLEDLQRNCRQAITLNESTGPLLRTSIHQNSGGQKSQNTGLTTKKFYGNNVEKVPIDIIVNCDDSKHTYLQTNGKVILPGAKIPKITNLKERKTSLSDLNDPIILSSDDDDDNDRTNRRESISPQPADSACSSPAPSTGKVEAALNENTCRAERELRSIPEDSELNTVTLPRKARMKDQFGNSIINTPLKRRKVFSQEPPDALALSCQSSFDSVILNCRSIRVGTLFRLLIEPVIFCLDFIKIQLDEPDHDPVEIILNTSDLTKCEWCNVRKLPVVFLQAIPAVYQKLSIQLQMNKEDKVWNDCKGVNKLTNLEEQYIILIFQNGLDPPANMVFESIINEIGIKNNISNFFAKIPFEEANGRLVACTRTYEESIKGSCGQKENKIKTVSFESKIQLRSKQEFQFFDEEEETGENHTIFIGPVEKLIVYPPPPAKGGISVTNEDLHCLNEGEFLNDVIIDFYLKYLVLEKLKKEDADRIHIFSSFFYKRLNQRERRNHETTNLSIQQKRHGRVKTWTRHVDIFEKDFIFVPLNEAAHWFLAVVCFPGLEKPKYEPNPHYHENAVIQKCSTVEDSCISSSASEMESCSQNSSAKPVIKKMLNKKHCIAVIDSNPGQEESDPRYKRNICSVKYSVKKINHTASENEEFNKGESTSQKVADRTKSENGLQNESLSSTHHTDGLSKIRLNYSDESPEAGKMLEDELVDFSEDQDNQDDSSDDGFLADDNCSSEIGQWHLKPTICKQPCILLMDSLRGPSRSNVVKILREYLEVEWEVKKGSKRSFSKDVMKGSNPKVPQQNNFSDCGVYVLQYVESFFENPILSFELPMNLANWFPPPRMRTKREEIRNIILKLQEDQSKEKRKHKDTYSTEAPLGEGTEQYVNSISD
As to the kind of experiment: SAR Analysis of small molecule inhibitors of Sentrin-specific protease 6 (SENP6) using a Luminescent assay. [Related pubchem assays (depositor defined):AID2582, AID2599]. The class given is functional.

The source made the active and inactive calls. Some results are limits rather than exact numbers.

Trypsin, sequence (P00761 whole entry): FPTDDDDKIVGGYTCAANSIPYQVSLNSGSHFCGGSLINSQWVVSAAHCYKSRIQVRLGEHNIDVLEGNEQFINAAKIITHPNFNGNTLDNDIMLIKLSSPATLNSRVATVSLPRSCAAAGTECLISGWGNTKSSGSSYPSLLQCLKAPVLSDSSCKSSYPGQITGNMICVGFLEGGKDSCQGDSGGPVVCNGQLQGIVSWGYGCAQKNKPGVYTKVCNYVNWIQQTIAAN
Delta-type opioid receptor, sequence (P41143 whole entry): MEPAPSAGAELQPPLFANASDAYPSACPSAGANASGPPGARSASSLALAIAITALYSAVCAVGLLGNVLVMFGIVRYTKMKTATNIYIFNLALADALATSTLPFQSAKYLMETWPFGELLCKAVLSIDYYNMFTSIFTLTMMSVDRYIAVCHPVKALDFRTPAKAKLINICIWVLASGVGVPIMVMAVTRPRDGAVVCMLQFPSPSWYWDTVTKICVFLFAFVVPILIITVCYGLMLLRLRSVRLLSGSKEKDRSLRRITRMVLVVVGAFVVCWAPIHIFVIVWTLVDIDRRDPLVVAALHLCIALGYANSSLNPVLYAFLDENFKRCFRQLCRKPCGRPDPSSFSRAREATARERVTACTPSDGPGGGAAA
Mu-type opioid receptor, sequence (P35372 whole entry): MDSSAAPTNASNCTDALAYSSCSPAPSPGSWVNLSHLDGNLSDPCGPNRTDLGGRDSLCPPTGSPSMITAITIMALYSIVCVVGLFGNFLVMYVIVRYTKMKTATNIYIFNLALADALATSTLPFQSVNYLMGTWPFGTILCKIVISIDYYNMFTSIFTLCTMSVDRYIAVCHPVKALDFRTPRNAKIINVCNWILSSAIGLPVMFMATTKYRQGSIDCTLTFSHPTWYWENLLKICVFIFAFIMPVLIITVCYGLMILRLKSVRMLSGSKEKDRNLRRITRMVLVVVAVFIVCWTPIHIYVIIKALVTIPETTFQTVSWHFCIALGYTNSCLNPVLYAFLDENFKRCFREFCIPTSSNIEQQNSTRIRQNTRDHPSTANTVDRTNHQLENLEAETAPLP
5-hydroxytryptamine receptor 5A, sequence (P47898 whole entry): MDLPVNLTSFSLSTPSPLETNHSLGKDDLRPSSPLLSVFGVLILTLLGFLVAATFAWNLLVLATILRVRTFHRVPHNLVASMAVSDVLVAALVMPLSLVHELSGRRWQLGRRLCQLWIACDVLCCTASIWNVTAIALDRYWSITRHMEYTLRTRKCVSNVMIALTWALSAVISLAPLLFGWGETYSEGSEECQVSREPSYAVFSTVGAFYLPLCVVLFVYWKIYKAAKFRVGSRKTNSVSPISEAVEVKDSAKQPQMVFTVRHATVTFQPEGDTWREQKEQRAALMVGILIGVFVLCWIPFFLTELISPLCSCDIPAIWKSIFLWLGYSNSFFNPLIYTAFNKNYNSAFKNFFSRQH

As a reminder, the AC50 is the concentration at which the activity in the assay is half-maximal. Take `Cc1cc(C)n2cc(CSC3=NCCS3)nc2n1`: the concentration at half-maximal activity (AC50) was 8530 nM (active) at CAAX prenyl protease 2 and 8500 nM (active) at Trypsin.
As usually defined, the EC50 is the midpoint of the concentration-response curve. Take `OC(c1cc(-c2ccc(Cl)cc2)nc2ccccc12)C1CCCCN1` (stereo not drawn): in the experiment on BJ, the EC50 was > 133000 nM (inactive). Moreover, the AC50 with INS1 is 12200 nM (active).
Regarding `CN(C)C(CN=C(S)Nc1cccc(Cl)c1)c1ccccc1` (stereo not drawn), the EC50 is 11500 nM (inactive) in experiment [1], 4640 nM (active) on Mu-type opioid receptor, > 92500 nM (inactive) in experiment [2] and 596 nM (active) in [3].
The term IC50 denotes the concentration that gives 50% inhibition. As for `CSc1ccc(/C=C/c2noc(-c3ccccc3O)n2)cc1`, the concentration for half-maximal inhibition (IC50) was 1300 nM (active) in experiment [4], 1100 nM (active) at Caspase-3, 1300 nM (active) in [5] and 1300 nM (active) in experiment [6].
Turning to `Clc1ccccc1-c1nnc(/C=C/c2cccs2)o1`, the IC50 in experiment [4] was 1960 nM (active); at Caspase-3, 1300 nM (active); in experiment [5], 2060 nM (active); in experiment [6], 2010 nM (active).
With `CN(C)c1ccc(/C=N/NC(=O)C(O)c2ccc(Br)cc2)cc1` (stereo not drawn), the values for the AC50 at CAAX prenyl protease 2 and on Trypsin were 2170 nM (active) and 2800 nM (active), respectively.
